Values of other authors, collected in US20070264672A1, “DEVELOPMENT OF A NOVEL ASSAY FOR MGMT (METHYL GUANINE METHYL TRANSFERASE)” (priority 2006, published 2007).

Assays:
MGMT = molecular target: T1, MGMT (Homo sapiens, UniProt P16455); settings: human carcinoma HT-29 cell line, after exposure to the agent
T1 construct: endogenous in cells; host or cells: HT-29 (human carcinoma cell line)
T1 sequence (P16455 1-207): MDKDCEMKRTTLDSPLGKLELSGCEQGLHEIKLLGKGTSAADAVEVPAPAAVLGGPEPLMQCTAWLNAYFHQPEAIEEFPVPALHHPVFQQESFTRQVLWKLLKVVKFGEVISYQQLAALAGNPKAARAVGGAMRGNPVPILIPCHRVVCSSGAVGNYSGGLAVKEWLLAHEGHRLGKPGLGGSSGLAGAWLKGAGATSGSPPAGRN

[1] = system: human carcinoma HT-29 cell line; settings: combined with BCNU

Structure (SMILES)	duration of inhibition of MGMT activity (MGMT) [h]	potentiation of BCNU-induced cytotoxicity over that observed with BCNU alone [1]	effect on chemotherapy-induced cytotoxicity after depletion of MGMT (glioma cell lines)
CN(N=O)C(=O)N[C@H]1C(O)O[C@H](CO)[C@@H](O)[C@@H]1O (mixture of isomers) [streptozotocin]	48	–	–
Nc1nc(OCc2ccccc2)c2nc[nH]c2n1 [O^6—BG, O^6 benzylguanine]	48	three logs	enhanced
